According to ChEMBL document CHEMBL4190322, “Structure-based development of novel triazoles and related thiazolotriazoles as anticancer agents and Cdc25A/B phosphatase inhibitors. Synthesis, in vitro biological evaluation, molecular docking and in silico ADME-T studies” (Eur J Med Chem, 2017):
Active and inactive are the calls of the source. The rule behind the calls is not given here.

Legend:
Assay type in all cases: functional
NCI/ADR-RES = experiment: Growth inhibition of human NCI/ADR-RES cells at 10 uM after 48 hrs by SRB assay relative to control
HL-60 = experiment: Growth inhibition of human HL60 cells at 10 uM after 48 hrs by SRB assay relative to control
MDA-MB-468 = experiment: Growth inhibition of human MDA-MB-468 cells at 10 uM after 48 hrs by SRB assay relative to control
SK-OV-3 = experiment: Growth inhibition of human SKOV3 cells at 10 uM after 48 hrs by SRB assay relative to control
NCI-H522 = experiment: Growth inhibition of human NCI-H522 cells at 10 uM after 48 hrs by SRB assay relative to control; conditions: NCI-H522, 48 h, read-out: GI
OVCAR-8 = experiment: Growth inhibition of human OVCAR8 cells at 10 uM after 48 hrs by SRB assay relative to control
MCF7 = experiment: Growth inhibition of human MCF7 cells at 10 uM after 48 hrs by SRB assay relative to control; conditions: MCF7, 48 h, read-out: GI
A549 = experiment: Growth inhibition of human A549 cells at 10 uM after 48 hrs by SRB assay relative to control
786-0 = experiment: Growth inhibition of human 786-0 cells at 10 uM after 48 hrs by SRB assay relative to control
RPMI-8226 = experiment: Growth inhibition of human RPMI8226 cells at 10 uM after 48 hrs by SRB assay relative to control; conditions: RPMI-8226, 48 h, read-out: GI
CAKI-1 = experiment: Growth inhibition of human Caki1 cells at 10 uM after 48 hrs by SRB assay relative to control; conditions: CAKI-1, 48 h, read-out: GI
KM12 = experiment: Growth inhibition of human KM12 cells at 10 uM after 48 hrs by SRB assay relative to control
K562 = experiment: Growth inhibition of human K562 cells at 10 uM after 48 hrs by SRB assay relative to control; conditions: K562, 48 h, read-out: GI
Malme-3M = experiment: Growth inhibition of human MALME-3M cells at 10 uM after 48 hrs by SRB assay relative to control
HCT-116 = experiment: Growth inhibition of human HCT116 cells at 10 uM after 48 hrs by SRB assay relative to control
RXF 393 = experiment: Growth inhibition of human RXF393 cells at 10 uM after 48 hrs by SRB assay relative to control
LOX IMVI = experiment: Growth inhibition of human LOXIMVI cells at 10 uM after 48 hrs by SRB assay relative to control; conditions: read-out: GI
UO-31 = experiment: Growth inhibition of human UO31 cells at 10 uM after 48 hrs by SRB assay relative to control; conditions: UO-31, 48 h, read-out: GI
SNB-19 = experiment: Growth inhibition of human SNB19 cells at 10 uM after 48 hrs by SRB assay relative to control
SK-MEL-5 = experiment: Growth inhibition of human SK-MEL-5 cells at 10 uM after 48 hrs by SRB assay relative to control
PC-3 = experiment: Growth inhibition of human PC3 cells at 10 uM after 48 hrs by SRB assay relative to control; conditions: PC-3, 48 h, read-out: GI
MOLT-4 = experiment: Growth inhibition of human MOLT4 cells at 10 uM after 48 hrs by SRB assay relative to control
A498 = experiment: Growth inhibition of human A498 cells at 10 uM after 48 hrs by SRB assay relative to control; conditions: A498, 48 h, read-out: GI
HOP-62 = experiment: Growth inhibition of human HOP62 cells at 10 uM after 48 hrs by SRB assay relative to control
NCI-H23 = experiment: Growth inhibition of human NCI-H23 cells at 10 uM after 48 hrs by SRB assay relative to control; conditions: NCI-H23, 48 h, read-out: GI
SK-MEL-2 = experiment: Growth inhibition of human SK-MEL-2 cells at 10 uM after 48 hrs by SRB assay relative to control
Hs-578T = experiment: Growth inhibition of human Hs 578T cells at 10 uM after 48 hrs by SRB assay relative to control
NCI-H226 = experiment: Growth inhibition of human NCI-H226 cells at 10 uM after 48 hrs by SRB assay relative to control
SF-268 = experiment: Growth inhibition of human SF268 cells at 10 uM after 48 hrs by SRB assay relative to control
CCRF-CEM = experiment: Growth inhibition of human CCRF-CEM cells at 10 uM after 48 hrs by SRB assay relative to control; conditions: read-out: GI
UACC-257 = experiment: Growth inhibition of human UACC257 cells at 10 uM after 48 hrs by SRB assay relative to control
U-251 = experiment: Growth inhibition of human U251 cells at 10 uM after 48 hrs by SRB assay relative to control; conditions: U-251, 48 h, read-out: GI
NCI-H322M = experiment: Growth inhibition of human NCI-H322M cells at 10 uM after 48 hrs by SRB assay relative to control
UACC-62 = experiment: Growth inhibition of human UACC62 cells at 10 uM after 48 hrs by SRB assay relative to control
HOP-92 = experiment: Growth inhibition of human HOP92 cells at 10 uM after 48 hrs by SRB assay relative to control; conditions: HOP-92, 48 h, read-out: GI
HT-29 = experiment: Growth inhibition of human HT-29 cells at 10 uM after 48 hrs by SRB assay relative to control
OVCAR-4 = experiment: Growth inhibition of human OVCAR4 cells at 10 uM after 48 hrs by SRB assay relative to control
SNB-75 = experiment: Growth inhibition of human SNB75 cells at 10 uM after 48 hrs by SRB assay relative to control; conditions: SNB-75, 48 h, read-out: GI
SR = experiment: Growth inhibition of human SR cells at 10 uM after 48 hrs by SRB assay relative to control; conditions: read-out: GI
OVCAR-3 = experiment: Growth inhibition of human OVCAR3 cells at 10 uM after 48 hrs by SRB assay relative to control

Row | SMILES | growth inhibition (GI) (HL-60) | growth inhibition (GI) (MDA-MB-468) | inhibition of growth at 10 µM (NCI-H522) | growth inhibition (GI) (OVCAR-8) | inhibition of growth at 10 µM (MCF7) | growth inhibition (GI) (786-0) | inhibition of growth at 10 µM (RPMI-8226) | inhibition of growth at 10 µM (CAKI-1) | inhibition of growth at 10 µM (K562) | growth inhibition (GI) (Malme-3M) | growth inhibition (GI) (HCT-116) | growth inhibition (GI) (RXF 393) | inhibition of growth at 10 µM (LOX IMVI) | inhibition of growth at 10 µM (UO-31) | growth inhibition (GI) (SK-MEL-5) | inhibition of growth at 10 µM (PC-3) | growth inhibition (GI) (MOLT-4) | inhibition of growth at 10 µM (A498) | inhibition of growth at 10 µM (NCI-H23) | growth inhibition (GI) (Hs-578T) | also measured
1 | COc1ccc(Cc2nnc3sc(SC)nn23)cc1 | inactive | inactive | 12.2% | inactive | 8.21% | inactive | 1.21% | 4.37% | 3.47% | inactive | inactive | inactive | 2.73% | 12.7% | inactive | 2.19% | inactive | 3.37% | 5.4% | inactive | growth inhibition (GI) (NCI/ADR-RES): inactive; growth inhibition (GI) (SK-OV-3): inactive; inhibition of growth at 10 µM (A549; A549, 48 h, read-out: GI): 4.46%; growth inhibition (GI) (KM12): inactive; growth inhibition (GI) (SNB-19): inactive; growth inhibition (GI) (HOP-62): inactive; inhibition of growth at 10 µM (SK-MEL-2; SK-MEL-2, 48 h, read-out: GI): 14.7%; inhibition of growth at 10 µM (NCI-H226; NCI-H226, 48 h, read-out: GI): 4.76%; inhibition of growth at 10 µM (SF-268; SF-268, 48 h, read-out: GI): 2.15%; inhibition of growth at 10 µM (CCRF-CEM): 5.04%; inhibition of growth at 10 µM (UACC-257; UACC-257, 48 h, read-out: GI): 9.07%; inhibition of growth at 10 µM (U-251): 3.17%; growth inhibition (GI) (NCI-H322M): inactive; growth inhibition (GI) (UACC-62): inactive; inhibition of growth at 10 µM (HOP-92): 13.4%; growth inhibition (GI) (HT-29): inactive; growth inhibition (GI) (OVCAR-4): inactive; inhibition of growth at 10 µM (SNB-75): 8.34%; inhibition of growth at 10 µM (SR): 7.53%; growth inhibition (GI) (OVCAR-3): inactive
2 | COc1ccc(Cc2nnc3sc(SCC(=O)Nc4ccc(Cl)cc4)nn23)cc1 | inactive | inactive | 8.35% | inactive | 10% | inactive | 7.47% | 5.77% | 2.76% | inactive | inactive | inactive | 8% | 10.2% | inactive | 14.8% | inactive | 19.6% | 9.4% | inactive | inhibition of growth at 10 µM (NCI/ADR-RES; read-out: GI): 2.54%; inhibition of growth at 10 µM (SK-OV-3; SK-OV-3, 48 h, read-out: GI): 1.64%; growth inhibition (GI) (A549): inactive; inhibition of growth at 10 µM (KM12; KM12, 48 h, read-out: GI): 5.75%; inhibition of growth at 10 µM (SNB-19; SNB-19, 48 h, read-out: GI): 10.4%; inhibition of growth at 10 µM (HOP-62; HOP-62, 48 h, read-out: GI): 4.5%; growth inhibition (GI) (SK-MEL-2): inactive; growth inhibition (GI) (NCI-H226): inactive; growth inhibition (GI) (SF-268): inactive; inhibition of growth at 10 µM (CCRF-CEM): 9.02%; growth inhibition (GI) (UACC-257): inactive; inhibition of growth at 10 µM (U-251): 4.46%; growth inhibition (GI) (NCI-H322M): inactive; growth inhibition (GI) (UACC-62): inactive; inhibition of growth at 10 µM (HOP-92): 20.3%; growth inhibition (GI) (HT-29): inactive; inhibition of growth at 10 µM (OVCAR-4; OVCAR-4, 48 h, read-out: GI): 5.49%; inhibition of growth at 10 µM (SNB-75): 20.2%; inhibition of growth at 10 µM (SR): 7.04%; growth inhibition (GI) (OVCAR-3): inactive
